pKi: −log10 of the molar value.
Assays:
[1] = target: 5-hydroxytryptamine receptor 1E (Homo sapiens) (UniProt P28566); assay: Displacement of [3H]5-HT from human recombinant 5-HT1E receptor at 10 uM after 1.5 hrs by microbeta scintillation counting analysis
[2] = target: T1, 5-hydroxytryptamine receptor 2A (Homo sapiens, UniProt P28223); assay: Displacement of [3H]ketanserin from human recombinant 5-HT2A receptor after 1.5 hrs by microbeta scintillation counting analysis
[3] = target: 5-hydroxytryptamine receptor 7 (Homo sapiens) (UniProt P34969); assay: Displacement of [3H]LSD from human recombinant 5-HT7 receptor at 10 uM after 1.5 hrs by microbeta scintillation counting analysis
[4] = Displacement of [3H]DTG from sigma 2 receptor in rat PC12 cell membrane after 2 hrs by microbeta scintillation counting analysis; format: cell membranes; conditions: pc-12
[5] = target: 5-hydroxytryptamine receptor 5A (Homo sapiens) (UniProt P47898); assay: Displacement of [3H]LSD from human recombinant 5-HT5A receptor at 10 uM after 1.5 hrs by microbeta scintillation counting analysis
[6] = target: Muscarinic acetylcholine receptor M3 (Homo sapiens) (UniProt P20309); assay: Displacement of [3H]QNB from human recombinant muscarinic M3 receptor at 10 uM after 1.5 hrs by microbeta scintillation counting analysis
Histamine H2 receptor = Histamine H2 receptor (Homo sapiens, UniProt P25021); assay: Displacement of [3H]tiotidine from human recombinant histamine H2 receptor at 10 uM after 1.5 hrs by microbeta scintillation counting analysis
[7] = target: Histamine H4 receptor (Homo sapiens) (UniProt Q9H3N8); assay: Displacement of [3H]histamine from histamine H4 receptor at 10 uM after 1.5 hrs by microbeta scintillation counting analysis
[8] = target: D(1A) dopamine receptor (Homo sapiens) (UniProt P21728); assay: Displacement of [3H]SCH23390 from human recombinant D1 receptor at 10 uM after 1.5 hrs by microbeta scintillation counting analysis
[9] = target: T2, Sodium-dependent dopamine transporter (Homo sapiens, UniProt Q01959); assay: Displacement of [3H]WIN35428 from human recombinant DAT at 10 uM after 1.5 hrs by microbeta scintillation counting analysis
[10] = target: 5-hydroxytryptamine receptor 2B (Homo sapiens, UniProt P41595); assay: Displacement of [3H]LSD from human recombinant 5-HT2B receptor at 10 uM after 1.5 hrs by microbeta scintillation counting analysis
[11] = target: Muscarinic acetylcholine receptor M5 (Homo sapiens) (UniProt P08912); assay: Displacement of [3H]QNB from human recombinant muscarinic M5 receptor at 10 uM after 1.5 hrs by microbeta scintillation counting analysis
[12] = target: Delta-type opioid receptor (Homo sapiens) (UniProt P41143); assay: Displacement of [3H]DADLE from human recombinant delta-opioid receptor at 10 uM after 1.5 hrs by microbeta scintillation counting analysis
[13] = target: 5-hydroxytryptamine receptor 2C (Homo sapiens) (UniProt P28335); assay: Displacement of [3H]mesulergine from human recombinant 5-HT2C receptor at 10 uM after 1.5 hrs by microbeta scintillation counting analysis
[14] = target: 5-hydroxytryptamine receptor 1D (Homo sapiens) (UniProt P28221); assay: Displacement of [3H]GR125743 from human recombinant 5-HT1D receptor at 10 uM after 1.5 hrs by microbeta scintillation counting analysis
[15] = target: Sigma non-opioid intracellular receptor 1 (Rattus norvegicus, UniProt Q9R0C9); assay: Displacement of [3H]pentazocine from sigma 1 receptor in rat brain membrane after 2.5 hrs by microbeta scintillation counting analysis; format: cell membranes
[16] = target: Alpha-1B adrenergic receptor (Homo sapiens) (UniProt P35368); assay: Displacement of [3H]prazosin from alpha 1B adrenergic receptor at 10 uM after 1 hr by microbeta scintillation counting analysis
[17] = target: 5-hydroxytryptamine receptor 3A (Homo sapiens) (UniProt P46098); assay: Displacement of [3H]LY-278584 from human recombinant 5-HT3 receptor at 10 uM after 1.5 hrs by microbeta scintillation counting analysis
Rattus norvegicus [18] = species: Rattus norvegicus; assay: Inhibitory activity against benzodiazepine receptor in rat brain at 10 uM; format: tissue-based
[19] = target: Kappa-type opioid receptor (Rattus norvegicus) (UniProt P34975); assay: Displacement of [3H]U69593 from rat kappa-opioid receptor at 10 uM after 1.5 hrs by microbeta scintillation counting analysis
[20] = target: Alpha-2A adrenergic receptor (Homo sapiens) (UniProt P08913); assay: Displacement of […] from alpha 2A adrenergic receptor at 10 uM after 40 mins by microbeta scintillation counting analysis
Histamine H1 receptor = Histamine H1 receptor (Homo sapiens, UniProt P35367); assay: Displacement of [3H]pyrilamine from human recombinant histamine H1 receptor at 10 uM after 1.5 hrs by microbeta scintillation counting analysis
[21] = target: Mu-type opioid receptor (Homo sapiens) (UniProt P35372); assay: Displacement of [3H]DAMGO from mu-opioid receptor at 10 uM after 1.5 hrs by microbeta scintillation counting analysis
[22] = target: T1, 5-hydroxytryptamine receptor 2A; assay: Displacement of [3H]ketanserin from human recombinant 5-HT2A receptor at 10 uM after 1.5 hrs by microbeta scintillation counting analysis
[23] = target: 5-hydroxytryptamine receptor 2C (Homo sapiens, UniProt P28335); assay: Displacement of [3H]mesulergine from human recombinant 5-HT2C receptor after 1.5 hrs by microbeta scintillation counting analysis
[24] = target: Beta-2 adrenergic receptor (Homo sapiens, UniProt P07550); assay: Displacement of [125I]Iodopindolol from beta 2 adrenergic receptor at 10 uM after 1.5 hrs by microbeta scintillation counting analysis
[25] = target: D(3) dopamine receptor (Homo sapiens) (UniProt P35462); assay: Displacement of [3H]N-methylspiperone from D3 receptor at 10 uM after 1.5 hrs by microbeta scintillation counting analysis
[26] = target: Sodium-dependent serotonin transporter (Homo sapiens) (UniProt P31645); assay: Displacement of [3H]citalopram from human recombinant SERT at 10 uM after 1.5 hrs by microbeta scintillation counting analysis
[27] = target: D(4) dopamine receptor (Homo sapiens) (UniProt P21917); assay: Displacement of [3H]N-methylspiperone from D4 receptor at 10 uM after 1.5 hrs by microbeta scintillation counting analysis
[28] = target: Beta-1 adrenergic receptor (Homo sapiens) (UniProt P08588); assay: Displacement of [125I]Iodopindolol from beta 1 adrenergic receptor at 10 uM after 1.5 hrs by microbeta scintillation counting analysis
Rattus norvegicus [29] = species: Rattus norvegicus; assay: Displacement of [3H]muscimol from GABAA receptor in rat brain membrane at 10 uM after 1.5 hrs by microbeta scintillation counting analysis; format: cell membranes
[30] = target: Alpha-2C adrenergic receptor (Homo sapiens) (UniProt P18825); assay: Displacement of [3H]clonidine from alpha 2C adrenergic receptor at 10 uM after 40 mins by microbeta scintillation counting analysis
[31] = target: T2, Sodium-dependent dopamine transporter; assay: Displacement of [3H]WIN35428 from human recombinant DAT after 1.5 hrs by microbeta scintillation counting analysis
[32] = target: 5-hydroxytryptamine receptor 1B (Homo sapiens) (UniProt P28222); assay: Displacement of [3H]GR125743 from human recombinant 5-HT1B receptor at 10 uM after 1.5 hrs by microbeta scintillation counting analysis

T1 sequence (P28223 whole entry): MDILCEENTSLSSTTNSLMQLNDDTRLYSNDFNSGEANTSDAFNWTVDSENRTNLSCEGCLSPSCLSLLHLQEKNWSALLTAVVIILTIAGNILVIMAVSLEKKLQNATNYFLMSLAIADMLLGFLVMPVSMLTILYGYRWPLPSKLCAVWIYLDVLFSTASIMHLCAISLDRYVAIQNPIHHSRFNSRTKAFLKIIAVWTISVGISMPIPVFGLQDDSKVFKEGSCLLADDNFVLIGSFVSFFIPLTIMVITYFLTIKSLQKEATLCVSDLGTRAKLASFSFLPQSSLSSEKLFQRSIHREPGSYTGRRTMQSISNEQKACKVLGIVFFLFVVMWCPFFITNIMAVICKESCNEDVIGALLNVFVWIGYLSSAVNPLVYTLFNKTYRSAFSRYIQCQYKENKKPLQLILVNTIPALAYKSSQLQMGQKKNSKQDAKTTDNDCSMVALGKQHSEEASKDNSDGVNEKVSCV
T2 sequence (Q01959 whole entry): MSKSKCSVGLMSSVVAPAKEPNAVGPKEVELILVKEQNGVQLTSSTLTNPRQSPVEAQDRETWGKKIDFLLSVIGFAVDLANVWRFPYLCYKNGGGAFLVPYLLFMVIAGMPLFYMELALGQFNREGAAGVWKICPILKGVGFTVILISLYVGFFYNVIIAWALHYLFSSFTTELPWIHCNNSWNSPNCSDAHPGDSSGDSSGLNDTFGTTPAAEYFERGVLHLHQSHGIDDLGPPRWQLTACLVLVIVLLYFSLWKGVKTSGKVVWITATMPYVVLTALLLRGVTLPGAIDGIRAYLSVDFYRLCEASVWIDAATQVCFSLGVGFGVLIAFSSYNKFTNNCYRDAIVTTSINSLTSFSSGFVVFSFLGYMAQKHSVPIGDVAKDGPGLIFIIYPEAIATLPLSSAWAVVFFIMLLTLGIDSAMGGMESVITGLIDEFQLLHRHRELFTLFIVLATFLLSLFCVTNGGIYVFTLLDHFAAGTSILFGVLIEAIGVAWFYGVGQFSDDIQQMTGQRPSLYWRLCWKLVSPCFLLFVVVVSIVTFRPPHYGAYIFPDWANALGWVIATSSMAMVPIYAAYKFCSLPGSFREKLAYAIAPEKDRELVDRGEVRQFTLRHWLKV
Chain of D(3) dopamine receptor (Homo sapiens) (P35462 whole entry): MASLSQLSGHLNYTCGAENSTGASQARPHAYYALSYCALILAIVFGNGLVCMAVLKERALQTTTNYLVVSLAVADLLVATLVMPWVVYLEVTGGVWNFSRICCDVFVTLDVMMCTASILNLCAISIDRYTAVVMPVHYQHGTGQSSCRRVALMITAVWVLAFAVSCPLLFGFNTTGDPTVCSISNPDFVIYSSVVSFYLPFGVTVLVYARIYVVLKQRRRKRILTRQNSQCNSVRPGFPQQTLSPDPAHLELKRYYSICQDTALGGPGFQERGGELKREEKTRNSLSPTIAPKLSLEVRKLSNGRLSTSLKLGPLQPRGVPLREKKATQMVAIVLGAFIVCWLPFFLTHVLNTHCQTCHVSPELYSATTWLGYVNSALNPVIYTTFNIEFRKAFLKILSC
Chain of 5-hydroxytryptamine receptor 5A (Homo sapiens) (P47898 whole entry): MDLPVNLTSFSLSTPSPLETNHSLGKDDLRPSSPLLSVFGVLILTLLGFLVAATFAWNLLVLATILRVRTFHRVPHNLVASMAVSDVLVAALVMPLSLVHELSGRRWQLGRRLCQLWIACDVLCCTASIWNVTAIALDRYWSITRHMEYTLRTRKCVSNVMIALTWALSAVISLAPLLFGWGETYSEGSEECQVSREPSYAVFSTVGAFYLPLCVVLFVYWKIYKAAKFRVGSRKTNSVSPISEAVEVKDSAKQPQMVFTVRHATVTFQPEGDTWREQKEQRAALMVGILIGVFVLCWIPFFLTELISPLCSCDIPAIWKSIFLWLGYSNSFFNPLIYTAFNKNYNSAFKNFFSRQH
Chain of Muscarinic acetylcholine receptor M3 (Homo sapiens) (P20309 whole entry, looked up): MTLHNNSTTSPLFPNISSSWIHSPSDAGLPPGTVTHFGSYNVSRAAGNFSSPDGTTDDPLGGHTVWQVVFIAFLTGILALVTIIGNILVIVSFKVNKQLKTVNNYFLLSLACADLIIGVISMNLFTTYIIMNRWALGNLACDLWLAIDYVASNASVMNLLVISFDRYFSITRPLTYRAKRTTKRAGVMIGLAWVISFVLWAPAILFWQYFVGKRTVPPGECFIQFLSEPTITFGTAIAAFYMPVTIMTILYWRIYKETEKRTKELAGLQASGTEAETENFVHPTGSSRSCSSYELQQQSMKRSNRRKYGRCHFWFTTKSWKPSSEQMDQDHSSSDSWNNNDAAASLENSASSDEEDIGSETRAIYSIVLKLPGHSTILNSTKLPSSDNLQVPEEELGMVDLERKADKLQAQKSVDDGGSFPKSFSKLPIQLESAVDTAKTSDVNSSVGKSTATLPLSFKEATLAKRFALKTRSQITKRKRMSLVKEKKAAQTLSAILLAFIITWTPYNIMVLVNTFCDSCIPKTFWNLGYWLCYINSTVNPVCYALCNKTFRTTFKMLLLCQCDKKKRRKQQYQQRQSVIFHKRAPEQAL
Chain of 5-hydroxytryptamine receptor 2C (P28335 whole entry): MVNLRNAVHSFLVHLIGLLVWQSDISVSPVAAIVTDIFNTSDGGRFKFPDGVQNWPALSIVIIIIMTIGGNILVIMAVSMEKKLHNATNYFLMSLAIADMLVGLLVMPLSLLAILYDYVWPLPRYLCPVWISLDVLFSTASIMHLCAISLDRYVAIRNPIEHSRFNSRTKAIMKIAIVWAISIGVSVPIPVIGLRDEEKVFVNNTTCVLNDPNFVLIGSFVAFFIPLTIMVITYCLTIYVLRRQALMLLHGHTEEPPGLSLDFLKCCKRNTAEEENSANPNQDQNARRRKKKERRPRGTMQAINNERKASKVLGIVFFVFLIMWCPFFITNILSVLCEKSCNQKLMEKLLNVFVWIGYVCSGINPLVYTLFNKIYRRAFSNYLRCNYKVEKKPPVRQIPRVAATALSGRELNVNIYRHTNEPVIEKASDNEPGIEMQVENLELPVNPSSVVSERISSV
Chain of 5-hydroxytryptamine receptor 2C (Homo sapiens) (P28335 whole entry): as above
Chain of Mu-type opioid receptor (Homo sapiens) (P35372 whole entry): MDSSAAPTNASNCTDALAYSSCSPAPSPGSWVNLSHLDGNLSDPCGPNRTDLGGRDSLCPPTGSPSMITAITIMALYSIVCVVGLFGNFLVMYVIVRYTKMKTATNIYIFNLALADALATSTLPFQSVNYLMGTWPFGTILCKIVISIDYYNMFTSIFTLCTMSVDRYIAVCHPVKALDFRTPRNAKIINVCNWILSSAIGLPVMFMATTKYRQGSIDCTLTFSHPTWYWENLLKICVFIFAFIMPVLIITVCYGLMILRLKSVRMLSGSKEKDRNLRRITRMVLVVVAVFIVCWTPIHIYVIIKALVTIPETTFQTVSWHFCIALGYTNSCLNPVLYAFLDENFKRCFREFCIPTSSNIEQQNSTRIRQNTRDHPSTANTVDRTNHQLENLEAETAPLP
Chain of Kappa-type opioid receptor (Rattus norvegicus) (P34975 whole entry): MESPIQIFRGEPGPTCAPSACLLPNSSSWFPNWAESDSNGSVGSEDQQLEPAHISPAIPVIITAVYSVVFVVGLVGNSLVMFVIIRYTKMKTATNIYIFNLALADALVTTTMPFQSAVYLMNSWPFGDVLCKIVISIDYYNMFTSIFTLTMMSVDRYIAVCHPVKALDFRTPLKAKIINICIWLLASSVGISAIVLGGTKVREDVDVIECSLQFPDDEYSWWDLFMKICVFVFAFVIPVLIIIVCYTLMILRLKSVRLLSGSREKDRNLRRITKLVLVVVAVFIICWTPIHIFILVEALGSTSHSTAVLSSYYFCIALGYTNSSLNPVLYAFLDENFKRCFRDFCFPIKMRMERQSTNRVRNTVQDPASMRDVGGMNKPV
Chain of 5-hydroxytryptamine receptor 7 (Homo sapiens) (P34969 whole entry): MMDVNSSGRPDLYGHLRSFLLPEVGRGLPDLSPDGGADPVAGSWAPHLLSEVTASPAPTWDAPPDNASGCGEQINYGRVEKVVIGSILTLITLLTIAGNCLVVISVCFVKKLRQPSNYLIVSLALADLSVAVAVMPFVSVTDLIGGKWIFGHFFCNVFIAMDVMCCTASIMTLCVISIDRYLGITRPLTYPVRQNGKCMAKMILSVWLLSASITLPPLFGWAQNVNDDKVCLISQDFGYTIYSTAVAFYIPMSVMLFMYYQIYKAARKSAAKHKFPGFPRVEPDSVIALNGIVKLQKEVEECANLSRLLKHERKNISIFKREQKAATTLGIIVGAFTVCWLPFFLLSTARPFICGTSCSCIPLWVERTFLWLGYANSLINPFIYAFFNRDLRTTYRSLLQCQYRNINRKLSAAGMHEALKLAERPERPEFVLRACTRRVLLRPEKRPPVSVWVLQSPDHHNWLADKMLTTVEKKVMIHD
Chain of 5-hydroxytryptamine receptor 1D (Homo sapiens) (P28221 whole entry): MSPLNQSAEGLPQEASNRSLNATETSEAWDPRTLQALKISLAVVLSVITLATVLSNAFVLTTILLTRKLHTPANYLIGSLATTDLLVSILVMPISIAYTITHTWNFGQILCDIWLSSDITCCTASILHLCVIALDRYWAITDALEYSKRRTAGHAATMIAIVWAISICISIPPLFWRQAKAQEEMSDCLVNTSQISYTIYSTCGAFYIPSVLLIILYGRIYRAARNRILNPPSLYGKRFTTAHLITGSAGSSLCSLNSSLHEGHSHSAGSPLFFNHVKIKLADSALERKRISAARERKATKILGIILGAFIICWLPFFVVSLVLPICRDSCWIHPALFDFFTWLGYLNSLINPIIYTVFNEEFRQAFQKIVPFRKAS
Chain of 5-hydroxytryptamine receptor 1E (Homo sapiens) (P28566 whole entry): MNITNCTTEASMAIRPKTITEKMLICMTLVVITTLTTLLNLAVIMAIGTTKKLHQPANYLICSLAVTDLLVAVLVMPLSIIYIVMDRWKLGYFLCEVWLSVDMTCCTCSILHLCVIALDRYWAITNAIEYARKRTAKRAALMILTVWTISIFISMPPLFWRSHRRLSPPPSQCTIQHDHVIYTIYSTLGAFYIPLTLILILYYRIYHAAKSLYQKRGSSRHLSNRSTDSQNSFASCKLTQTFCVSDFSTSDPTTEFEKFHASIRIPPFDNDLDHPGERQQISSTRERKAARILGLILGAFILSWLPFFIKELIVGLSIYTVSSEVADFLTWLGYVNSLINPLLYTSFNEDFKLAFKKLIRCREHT

SMILES	Efficacy [1] [%]	pKi [2]	Efficacy [3] [%]	pKi [4]	Efficacy [5] [%]	Efficacy [6] [%]	Efficacy (Histamine H2 receptor) [%]	Efficacy [7] [%]	Efficacy [8] [%]	Efficacy [9] [%]	Efficacy [10] [%]	Efficacy [11] [%]	Efficacy [12] [%]	Efficacy [13] [%]	Efficacy [14] [%]	pKi [15]	Efficacy [16] [%]	Efficacy [17] [%]	Efficacy (Rattus norvegicus [18]) [%]	Efficacy [19] [%]	other results
c1ccc(OCc2cc(OC[C@@H]3CCN3)no2)cc1	5.9	5.19	42.4	5.83	15.2	47.6	40.9	42.6	6.1	91.8	43.3	44.5	4.9	68.8	14	7.48	18.1	-0.1	23.5	6.7	Efficacy [20]: 17.4%; Efficacy (Histamine H1 receptor): 49.2%; Efficacy [21]: 38.1%; Efficacy [22]: 77.9%; pKi [23]: < 5.00; Efficacy [24]: 29.4%; Efficacy [25]: 12.9%; Efficacy [26]: 8.8%; Efficacy [27]: 30%; Efficacy [28]: 22.1%; Efficacy (Rattus norvegicus [29]): 2.5%; Efficacy [30]: 43.8%; pKi [31]: 7.62; Efficacy [32]: 2.3%
c1ccc(OCc2cc(OC[C@@H]3CCCN3)no2)cc1	-4.7	5.36	16.9	5.88	32.4	12.2	57.2	26.5	-5.7	59.4	54.5	36.6	10.3	76.9	15.7	8.39	27.8	7	27.1	9.4	Efficacy [20]: 36.1%; Efficacy (Histamine H1 receptor): 55%; Efficacy [21]: 29.8%; Efficacy [22]: 68%; pKi [23]: < 5.00; Efficacy [24]: 55.6%; Efficacy [25]: 35.9%; Efficacy [26]: 3.4%; Efficacy [27]: 32%; Efficacy [28]: -1.2%; Efficacy (Rattus norvegicus [29]): 5.7%; Efficacy [30]: 39.3%; pKi [31]: 6.43; Efficacy [32]: -1.2%

— ChEMBL document CHEMBL2203055, “From α4β2 Nicotinic Ligands to the Discovery of σ1 Receptor Ligands: Pharmacophore Analysis and Rational Design” (ACS Med Chem Lett, 2012)
